Test results: PubChem BioAssay AID248 (DTP/NCI, 2004)
Toxic doses and inconclusive results are not listed. Cut-off read from the data, not from the text of the source: active = T/C of 150% or more; inactive = T/C below 125%.

System: L1210 leukemia ip in BDF1 mice, survival T/C
Test: NCI In Vivo Anticancer Drug Screen. Data for tumor model L1210 Leukemia (intraperitoneal) in B6D2F1 (BDF1) mice
Settings: endpoint: mean survival time, higher = longer survival
Outline: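 Tumor was transplanted into mice, which were then dosed with test compound or vehicle alone. Survival was recorded for each group, and the treated figure was expressed relative to the control figure.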

[1] = dose: 100.0 mg/kg/injection, schedule: Q01DX009 (ip), vehicle: Klucel (hydroxypropylcellulose) (HPC)
[2] = dose: 100.0 mg/kg/injection, schedule: Q04DX003 (ip), vehicle: Klucel (hydroxypropylcellulose) (HPC)
[3] = dose: 200.0 mg/kg/injection, schedule: Q01DX009 (ip), vehicle: Klucel (hydroxypropylcellulose) (HPC)
[4] = dose: 200.0 mg/kg/injection, schedule: Q04DX003 (ip), vehicle: Klucel (hydroxypropylcellulose) (HPC)
[5] = dose: 400.0 mg/kg/injection, schedule: Q01DX009 (ip), vehicle: Klucel (hydroxypropylcellulose) (HPC)
[6] = dose: 400.0 mg/kg/injection, schedule: Q04DX003 (ip), vehicle: Klucel (hydroxypropylcellulose) (HPC)
[7] = dose: 50.0 mg/kg/injection, schedule: Q01DX009 (ip), vehicle: Klucel (hydroxypropylcellulose) (HPC)
[8] = dose: 6.25 mg/kg/injection, schedule: Q01DX009 (ip), vehicle: saline
[9] = dose: 100.0 mg/kg/injection, schedule: Q04DX002 (ip), vehicle: Klucel (hydroxypropylcellulose) (HPC)
[10] = dose: 200.0 mg/kg/injection, schedule: Q04DX002 (ip), vehicle: Klucel (hydroxypropylcellulose) (HPC)
[11] = dose: 50.0 mg/kg/injection, schedule: Q01DX009 (ip), vehicle: saline with Tween-80
[12] = dose: 100.0 mg/kg/injection, schedule: Q01DX009 (ip), vehicle: saline with Tween-80
[13] = dose: 100.0 mg/kg/injection, schedule: Q04DX003 (ip), vehicle: saline with Tween-80
[14] = dose: 200.0 mg/kg/injection, schedule: Q01DX009 (ip), vehicle: saline with Tween-80
[15] = dose: 200.0 mg/kg/injection, schedule: Q04DX003 (ip), vehicle: saline with Tween-80
[16] = dose: 400.0 mg/kg/injection, schedule: Q04DX003 (ip), vehicle: saline with Tween-80
[17] = dose: 100.0 mg/kg/injection, schedule: Q04DX003 (ip), vehicle: saline
[18] = dose: 200.0 mg/kg/injection, schedule: Q04DX003 (ip), vehicle: saline
[19] = dose: 400.0 mg/kg/injection, schedule: Q04DX003 (ip), vehicle: saline

Measured: T/C

O=C(Nc1cccc(C(F)(F)F)c1)Nc1ccc([N+](=O)[O-])cc1Cl
inactive: dose: 100.0 mg/kg/injection, schedule: Q01DX009 (ip), vehicle: gum acacia 88 % of control | dose: 200.0 mg/kg/injection, schedule: Q01DX009 (ip), vehicle: gum acacia 97 % of control | dose: 400.0 mg/kg/injection, schedule: Q01DX009 (ip), vehicle: gum acacia 96 % of control

CC1c2ccccc2OC(=O)C1C(=O)O (stereo not drawn)
inactive: dose: 88.8 mg/kg/injection, schedule: Q01DX001 (ip), vehicle: carboxymethylcellulose (CMC) 94 % of control | dose: 100.0 mg/kg/injection, schedule: Q01DX001 (ip), vehicle: carboxymethylcellulose (CMC) 94 % of control | dose: 133.4 mg/kg/injection, schedule: Q01DX001 (ip), vehicle: carboxymethylcellulose (CMC) 94 % of control | dose: 300.0 mg/kg/injection, schedule: Q01DX001 (ip), vehicle: carboxymethylcellulose (CMC) 100 % of control | dose: 400.0 mg/kg/injection, schedule: Q01DX001 (ip), vehicle: carboxymethylcellulose (CMC) 94 % of control

CCOC(=O)/C=C\c1c(OC)nc2ccccn2c1=O (tested in a mixture with another compound)
inactive: [1] 101 % of control | [2] 94 % of control | [3] 100 % of control | [4] 92 % of control | [5] 101 % of control | [6] 95 % of control

CNC(=O)Oc1ccccc1C(Cl)(Cl)Cl
inactive: [7] 97 % of control | [1] 101 % of control | [3] 112 % of control

O=C(O)C1C(C(=O)O)C23CC2(C(=O)O)C2(C(=O)O)CCC3=C3CCCC312 (stereo not drawn)
inactive: [8] 109 % of control | dose: 6.25 mg/kg/injection, schedule: Q04DX003 (ip), vehicle: saline 104 % of control | dose: 12.5 mg/kg/injection, schedule: Q01DX001 (ip), vehicle: saline 114 % of control | dose: 12.5 mg/kg/injection, schedule: Q01DX009 (ip), vehicle: saline 111 % of control | dose: 12.5 mg/kg/injection, schedule: Q04DX003 (ip), vehicle: saline 104 % of control | dose: 25.0 mg/kg/injection, schedule: Q01DX001 (ip), vehicle: saline 98 % of control | dose: 25.0 mg/kg/injection, schedule: Q04DX003 (ip), vehicle: saline 103 % of control

CSc1n[nH]c(=O)nc1SC
inactive: dose: 100.0 mg/kg/injection, schedule: Q01DX001 (ip), vehicle: saline 104 % of control | dose: 200.0 mg/kg/injection, schedule: Q01DX001 (ip), vehicle: saline 96 % of control

ClC(Cl)(Cl)C1NCCO1 (stereo not drawn)
inactive: [1] 96 % of control | [2] 102 % of control | [3] 97 % of control | [4] 94 % of control | [5] 89 % of control | [6] 94 % of control

CSc1nncc(-c2cnnc(SC)n2)n1
inactive: [9] 108 % of control | [10] 94 % of control

CC(=O)Nc1ccc2c(c1)C(=O)c1cc(NC(C)=O)ccc1-2
inactive: [11] 95 % of control | [12] 95 % of control | [13] 92 % of control | [14] 101 % of control | [15] 86 % of control | [16] 89 % of control

C1CCC2C(C1)CCC1C2OCN2CCCCC12 (stereo not drawn)
inactive: dose: 100.0 mg/kg/injection, schedule: Q04DX002 (ip), vehicle: saline with Tween-80 104 % of control | [17] 98 % of control | dose: 200.0 mg/kg/injection, schedule: Q04DX002 (ip), vehicle: saline with Tween-80 101 % of control | [18] 98 % of control | dose: 400.0 mg/kg/injection, schedule: Q04DX002 (ip), vehicle: saline with Tween-80 96 % of control | [19] 98 % of control

O=C(NC1CCCCC1)O/N=C/c1ccccn1
inactive: dose: 100.0 mg/kg/injection, schedule: Q04DX003 (ip), vehicle: other 94 % of control | dose: 200.0 mg/kg/injection, schedule: Q04DX003 (ip), vehicle: other 109 % of control | dose: 400.0 mg/kg/injection, schedule: Q04DX003 (ip), vehicle: other 94 % of control

CCCC(C(=O)O)C(CCC)C(=O)O (stereo not drawn)
inactive: [12] 92 % of control | [14] 96 % of control

O=C(O)CNc1nc(Cl)nc(NCC(=O)O)n1
inactive: [7] 106 % of control | [1] 89 % of control

CCCC(OC(C)=O)C(Cl)(Cl)Cl (stereo not drawn)
inactive: [7] 103 % of control | [1] 107 % of control | [2] 97 % of control | [4] 97 % of control

O=C(OCc1ccccc1)C1CCCN1 (stereo not drawn)
inactive: dose: 25.0 mg/kg/injection, schedule: Q01DX009 (ip), vehicle: water 104 % of control | dose: 25.0 mg/kg/injection, schedule: Q04DX003 (ip), vehicle: water 109 % of control | dose: 50.0 mg/kg/injection, schedule: Q01DX009 (ip), vehicle: water 97 % of control | dose: 50.0 mg/kg/injection, schedule: Q04DX003 (ip), vehicle: water 96 % of control | dose: 100.0 mg/kg/injection, schedule: Q01DX009 (ip), vehicle: water 97 % of control | dose: 100.0 mg/kg/injection, schedule: Q04DX002 (ip), vehicle: saline 100 % of control | dose: 100.0 mg/kg/injection, schedule: Q04DX003 (ip), vehicle: water 102 % of control | dose: 200.0 mg/kg/injection, schedule: Q01DX009 (ip), vehicle: water 102 % of control | dose: 200.0 mg/kg/injection, schedule: Q04DX002 (ip), vehicle: saline 96 % of control | dose: 200.0 mg/kg/injection, schedule: Q04DX003 (ip), vehicle: water 102 % of control | dose: 400.0 mg/kg/injection, schedule: Q01DX009 (ip), vehicle: water 103 % of control | dose: 400.0 mg/kg/injection, schedule: Q04DX003 (ip), vehicle: water 109 % of control

CC/C(C)=C(/C(=O)O)c1ccccc1
inactive: [13] 91 % of control | [15] 94 % of control | [16] 94 % of control

CN(C/C=C/CN(C)P(=O)(N1CC1)N1CC1)P(=O)(N1CC1)N1CC1
inactive: [8] 107 % of control

O=C(CBr)N1CCC2(CC1)SSC1(CCN(C(=O)CBr)CC1)S2
inactive: [11] 96 % of control | [12] 91 % of control | [13] 102 % of control | [15] 105 % of control

Cn1c(=O)cc(CC#N)c2ccccc21
inactive: dose: 100.0 mg/kg/injection, schedule: Q01DX001 (ip), vehicle: other 100 % of control

O=C1CCC(N2C(=O)C3C4C=CC(C4)C3C2=O)C(=O)N1 (stereo not drawn)
inactive: [17] 101 % of control | [18] 101 % of control | [19] 97 % of control

COC(=O)C(C#N)Cc1ccccc1Cl (stereo not drawn)
inactive: [13] 90 % of control | [15] 96 % of control | [16] 98 % of control

O=C(O)COc1cc(F)c([N+](=O)[O-])cc1[N+](=O)[O-]
inactive: [9] 90 % of control | [10] 97 % of control

Nc1ccc(I)cc1
inactive: [13] 104 % of control | [15] 109 % of control
